Tests used:
[1] = tested on: intractable, persistent cough due to interstitial lung disease; test: Double blind, randomized, placebo-controlled, cross-over clinical study of inhaled carcainium chloride; format: in vivo, human
Source text: The aim of the clinical study was to determine the clinical effectiveness and safety of carcainium chloride by the inhaled route in hospital in-patients with intractable, persistent cough due to interstitial lung disease.
A double blind, randomized, placebo-controlled, cross-over study design was used to assess the effect of carcainium chloride as an anti-tussive in patients with interstitial lung disease.
The study was constructed as an adaptive contingency trial. In such a trial the outcome of each “test” of the drug against placebo is scored as either a positive or negative result (i.e. a binary decision, rather than a quantitative measure). Based on the outcome of this “test”, the trial either continues or halts. Patients attended two study visits where they were randomised to receive either: • carcainium chloride at a dose of 1.0 mg/kg on the first study visit followed by placebo (sodium chloride 0.9%) on the second visit; or • placebo (sodium chloride 0.9%) on the first visit followed by carcainium chloride at 1.0 mg/kg on the second visit.
Assessment of each patient was based on the following criteria. • 1 A physician's professional judgment of individual patient responses in a double blind crossover study with carcainium chloride and placebo in terms of anti-tussive action. • 2. Each patient's subjective comfort using a visual analogue scale (VAS), pre- and post-treatment. • 3. Each patient's coughs recorded in pre- and post-treatment periods for active and placebo treatments.
Carcainium chloride is a fine white dry powder and was provided in tightly closed vessels and stored in dark at room temperature upon receipt. The vehicle used for the dilution of carcainium chloride and for the placebo was 0.9% NaCl injection.
Patients were then administered the active or placebo sample, according to the above schedule, as an aerosol generated using an ultrasonic nebulizer (DeVilbiss Ultraneb).
In 8 out of 8 trials, the two physicians acting in concert successfully identified the active treatment carcainium chloride. The outcome of this assessment or “test” after each study treatment administered was either a success in which an ‘anti-tussive’ effect was observed (i.e. positive) or a failure which was defined as no change from baseline or pro-tussive effect (i.e. negative). The clinical investigator decided on a positive or negative outcome for each “test” in a blinded fashion. The statistical significance of this finding is <0.05 by contingency table, 0.05-0.01 by Chi square.
This was assessed on a 0-10 equal interval scale in the pre-drug and post-drug periods for active drug and placebo periods.
The frequency of cough (number per unit time) was recorded using a semi-automated system which records cough epochs (sounds) that are counted by a qualified technician.

irritant-induced cough = details: healthy human volunteers; Phase II; cited from earlier work
[2] = LC/MS/MS measurement of carcainium chloride concentrations in human plasma; format: in vivo; details: patients administered 1 mg/kg carcainium chloride by inhalation; K2EDTA plasma
Procedure: A liquid chromatography/tandem mass spectrometry (LC/MS/MS) assay method was developed, qualified, and implemented for the quantitation of carcainium chloride levels in K2EDTA human plasma samples collected from the human clinical study detailed above.
Initially, carcainium chloride was dissolved in deionized water to provide an initial standard or quality control (QC) stock solution at a concentration of 1000 μg/mL. Serial dilutions were carried out with deionized water to provide secondary stock solutions for subsequent preparation of plasma calibration standards or QC samples according to Table 1 below. The internal standard lidocaine was dissolved in deionized water to provide an initial stock solution at a concentration of 1000 μg/mL. The initial internal standard stock solution was then serially diluted with deionized water to provide a spiking stock solution concentration of 50 ng/mL.
A 10 μL aliquot of calibration standard stock solution or QC stock solution was transferred into individual 16×100 mm screw cap glass test tubes. For blank and blank with internal standard samples, 10 μL of deionized water was transferred instead. Human blank K2EDTA plasma (100 μL) was then added to each tube. A 50 μL aliquot of lidocaine internal standard spiking stock solution was transferred to each tube except for blank samples. A 50 μL aliquot of deionized water was added to blank samples. […]

For `C[N+](C)(CC(=O)Nc1ccccc1)CC(=O)Nc1ccccc1.[Cl-]` [carcainium chloride, N,N-Bis-(phenylcarbamoylmethyl) dimethylammonium chloride], the “Drug related adverse side effects in the human clinical study” value ([1]; 1 mg/kg inhaled) was “no significant drug related adverse side effects”, the “Number of coughs recorded electronically (frequency of cough)” value ([1]; 1.0 mg/kg inhaled vs placebo, p=0.0007) was “statistically significant treatment effect” and the “Patient comfort score (VAS, 0-10 scale), pre- and post-drug” value ([1]; 1.0 mg/kg inhaled vs placebo, p=0.0140 by sum of signed ranks) was “statistically significant improvement in patient well-being”. The “Physician assessment: trials in which the two physicians successfully identified the active treatment (anti-tussive effect)” value ([1]; 1.0 mg/kg inhaled, ultrasonic nebulizer, vs placebo 0.9% NaCl, blinded, significance <0.05 by contingency table, 0.05-0.01 by Chi square) was 8 out of 8, the “Anti-tussive activity, summary of the clinical study” value ([1]; preliminary analysis, all three measures statistically significant) was “marked anti-tussive activity” and the melting point was 177 to 178 °C. The “Ability to inhibit cough (increase of the amount of irritant required to induce cough)” value (irritant-induced cough) was “no statistically significant ability to inhibit cough” and the “Concentration of carcainium chloride in plasma samples” value [2] was 1 to 50 ng/mL.

From patent US20140242174A1, “TREATING COUGH AND TUSSIVE ATTACKS” (VERONA PHARMA PLC, priority 2011, published 2014)
